Molecules are shown by their SMILES.

Usually mortality stands for the share of the test organisms that died. High values mean a strong lethal effect, low ones a weak lethal effect.

Common to all, as to assay type: in vivo
In assay [1] the test system is green peach aphid (Myzus persicae (Sulzer)). The experiment in a line: Test A: control of green peach aphid on pre-infested radish plant, spray. The following applies: 144 h, visually assessed after 6 days; for mortality at 50 ppm: sprayed at 50 ppm; for mortality at 250 ppm: sprayed at 250 ppm. The procedure:
(§1) Test compounds were formulated using a solution containing 10% acetone, 90% water and 300 ppm X-77® Spreader Lo-Foam Formula non-ionic surfactant containing alkylarylpolyoxyethylene, free fatty acids, glycols and isopropanol (Loveland Industries, Inc. Greeley, Colorado, USA). The formulated compounds were applied in 1 mL of liquid through a SUJ2 atomizer nozzle with 1/8 JJ custom body (Spraying Systems Co. Wheaton, Illinois, USA) positioned 1.27 cm (0.5 inches) above the top of each test unit. Test compounds were sprayed at the rates indicated, and each test was replicated three times.
For evaluating control of green peach aphid (Myzus persicae (Sulzer)) through contact and/or systemic means, the test unit consisted of a small open container with a 12-15-day-old radish plant inside. This was pre-infested by placing on a leaf of the test plant 30-40 aphids on a piece of leaf excised from a culture plant (cut-leaf method). The aphids moved onto the test plant as the leaf piece desiccated. After pre-infestation, the soil of the test unit was covered with a layer of sand.
Test compounds were formulated and sprayed at 250 and/or 50 ppm. After spraying of the formulated test compound, each test unit was allowed to dry for 1 hour and then a black, screened cap was placed on top. The test units were held for 6 days in a growth chamber at 19-21° C. and 50-70% relative humidity. Each test unit was then visually assessed for insect mortality.

Assay [2] concerns cotton melon aphid (Aphis gossypii (Glover)). The assay is described as follows: Test B: control of cotton melon aphid on pre-infested cotton plant, spray. The conditions noted are these: 144 h, sprayed at 50 ppm, visually assessed after 6 days. The procedure: as §1
For evaluating control of cotton melon aphid (Aphis gossypii (Glover)) through contact and/or systemic means, the test unit consisted of a small open container with a 6-7-day-old cotton plant inside. This was pre-infested with 30-40 insects on a piece of leaf according to the cut-leaf method, and the soil of the test unit was covered with a layer of sand.
Test compounds were formulated and sprayed at 250 and/or 50 ppm. After spraying, the test units were maintained in a growth chamber for 6 days at 19° C. and 70% relative humidity. Each test unit was then visually assessed for insect mortality.

For assay [3], the system named is Western Flower Thrips (Frankliniellla occidentalis (Pergande)). The assay is described as follows: Test D: control of Western Flower Thrips on Soleil bean plant, spray. The following applies: adult thrips, held 6 days. As for the experimental part:
as §1
For evaluating control of the Western Flower Thrips (Frankliniellla occidentalis (Pergande)) through contact and/or systemic means, the test unit consisted of a small open container with a 5-7-day-old Soleil bean plant inside.
Test compounds were formulated and sprayed at 250 and/or 50 ppm. After spraying, the test units were allowed to dry for 1 hour, and then 22-27 adult thrips were added to each unit. A black, screened cap was placed on top, and the test units were held for 6 days at 25° C. and 45-55% relative humidity.

The subject of assay [4] is sweetpotato whitefly (Bemisia tabaci (Gennadius)). The assay is described as follows: Test C: control of sweetpotato whitefly on egg-infested cotton plant, spray. The following applies: 312 h, cotton plant with eggs, visually assessed after 13 days; for mortality at 250 ppm: sprayed at 250 ppm. As for the experimental part:
as §1
For evaluating control of the sweetpotato whitefly (Bemisia tabaci (Gennadius)) through contact and/or systemic means, the test unit consisted of a small open container with a 12-14-day-old cotton plant inside. Prior to the spray application, both cotyledons were removed from the plant, leaving one true leaf for the assay. Adult whiteflies were allowed to lay eggs on the plant and then were removed from the test unit. Cotton plants infested with at least 15 eggs were submitted to the test for spraying.
Test compounds were formulated and sprayed at 250 and/or 50 ppm. After spraying, the test units were allowed to dry for 1 hour. The cylinders were then removed, and the units were taken to a growth chamber and held for 13 days at 28° C. and 50-70% relative humidity. Each test unit was then visually assessed for insect mortality.

Consider `C[S+]([O-])CC(C)(C)NC(=O)c1ccc(F)c2nn(-c3cccnc3)cc12` (stereo not shown) [Compound 2b, N-[1,1-dimethyl-2-(methylsulfinyl)ethyl]-7-fluoro-2-(3-pyridinyl)-2H indazole-4-carboxamide], for which the mortality at 50 ppm in assay [1] and in assay [2] was at least 80% each time. In addition, the “control efficacy (30% or less plant damage and/or 100% mortality)” value in assay [3] (sprayed at 50 ppm) and in assay [3] (sprayed at 250 ppm) was “very good to excellent levels of control efficacy” in each case. Besides, in assay [4], the mortality at 250 ppm is at least 50%.
Turning to `O=C(NC1(C(F)F)CC1)c1cccc2nn(-c3cccnc3)cc12` [Compound 1, N-[1-(difluoromethyl)cyclopropyl]-2-(3-pyridinyl)-2H-indazole-4-carboxamide], the mortality at 50 ppm was at least 80% in assay [1], at least 80% in assay [2] and at least 50% in assay [4] (sprayed at 50 ppm). The values for the mortality at 250 ppm in assay [1] and in assay [4] were at least 80% and at least 50%, respectively. For the same molecule, the “control efficacy (30% or less plant damage and/or 100% mortality)” value in assay [3] (sprayed at 50 ppm) and in assay [3] (sprayed at 250 ppm) was “very good to excellent levels of control efficacy” in each case.
Take `CC(C)(CS(C)(=O)=O)NC(=O)c1ccc(F)c2nn(-c3cccnc3)cc12` [Compound 2c, N-[1,1-dimethyl-2-(methylsulfonyl)ethyl]-7-fluoro-2-(3-pyridinyl)-2H indazole-4-carboxamide]: the mortality at 50 ppm in assay [1] and in assay [2] was at least 80% each time.
`CSCC(C)(C)NC(=O)c1ccc(F)c2nn(-c3cccnc3)cc12` [Compound 2a, N-[1,1-dimethyl-2-(methylthio)ethyl]-7-fluoro-2-(3-pyridinyl)-2H-indazole-4-carboxamide]: the mortality at 50 ppm in assay [1] and in assay [2] was at least 80% each time. Further, the mortality at 250 ppm in assay [1] is at least 80%. Also, the “control efficacy (30% or less plant damage and/or 100% mortality)” value in assay [3] (sprayed at 50 ppm) and in assay [3] (sprayed at 250 ppm) was “very good to excellent levels of control efficacy” each time.

Source of the values: US12030865B2, “Pesticidal mixtures comprising indazoles” (FMC Corporation, priority 2018, dated 2024).
